# Test results reported in ChEMBL document CHEMBL1201862, “PubChem BioAssay data set” (2004).
#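 Briefly, cells in 96-well plates were exposed to five compound concentrations for 48 h, and endpoints were estimated by linear interpolation. The concentration for 50% growth inhibition is given as GI50.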 Active and inactive are the calls of the source. Rule as the data show it: active = GI50 up to about 1.1 µM and inactive = higher.
# Key:
# Assay in all cases: DTP human tumour cell line panel, 48 h
# [1] = tested on: SK-MEL-28
# [2] = tested on: SF-295
# [3] = tested on: UACC-62
# [4] = tested on: SW-620
# [5] = tested on: OVCAR-3
# [6] = tested on: RPMI-8226
# [7] = tested on: HOP-62
# [8] = tested on: M14
# [9] = tested on: A498
# [10] = tested on: TK-10
# [11] = tested on: 786-0
# [12] = tested on: KM12
# [13] = tested on: HT-29
# [14] = tested on: OVCAR-8
# [15] = tested on: KM-20L2
# [16] = tested on: HL-60
# [17] = tested on: MDA-N
# [18] = tested on: DMS-114
# [19] = tested on: CAKI-1
# [20] = tested on: SNB-78
Structure (SMILES),GI50 [1],GI50 [2],GI50 [3],GI50 [4],GI50 [5],GI50 [6],GI50 [7],GI50 [8],GI50 [9],GI50 [10],GI50 [11],GI50 [12],GI50 [13],GI50 [14],GI50 [15],GI50 [16],GI50 [17],GI50 [18],GI50 [19],GI50 [20]
COc1cc(C(=O)c2cocc2C(=O)c2ccc3c(c2)OCO3)cc(OC)c1OC,1.46 µM (inactive),0.351 µM (active),0.311 µM (active),0.316 µM (active),0.304 µM (active),0.628 µM (active),1 µM (active),1 µM (active),4.05 µM (inactive),3.18 µM (inactive),0.57 µM (active),0.254 µM (active),0.244 µM (active),1.35 µM (inactive),0.596 µM (active),0.0946 µM (active),0.0468 µM (active),0.753 µM (active),0.378 µM (active),–
Nc1c(Br)c(=O)[nH]c(=O)n1COCCO,> 100 µM (inactive),> 100 µM (inactive),> 100 µM (inactive),> 100 µM (inactive),> 100 µM (inactive),–,> 100 µM (inactive),> 100 µM (inactive),–,> 100 µM (inactive),> 100 µM (inactive),> 100 µM (inactive),> 100 µM (inactive),> 100 µM (inactive),–,> 100 µM (inactive),–,> 100 µM (inactive),> 100 µM (inactive),> 100 µM (inactive)
CC(C)(C)CC(C)(C)c1cc2c(O)c(c1)Cc1cc(C(C)(C)CC(C)(C)C)cc(c1O)Cc1cc(C(C)(C)CC(C)(C)C)cc(c1O)Cc1cc(C(C)(C)CC(C)(C)C)cc(c1O)Cc1cc(C(C)(C)CC(C)(C)C)cc(c1O)C2,> 100 µM (inactive),> 100 µM (inactive),> 100 µM (inactive),> 100 µM (inactive),> 100 µM (inactive),> 100 µM (inactive),> 100 µM (inactive),> 100 µM (inactive),–,> 100 µM (inactive),> 100 µM (inactive),> 100 µM (inactive),> 100 µM (inactive),> 100 µM (inactive),> 100 µM (inactive),> 100 µM (inactive),–,> 100 µM (inactive),–,> 100 µM (inactive)
Cc1ccc(C)c(N2C(=O)C(=O)C(c3nc4ccccc4s3)/C(=N/N)C2=O)c1 (centres undefined),> 100 µM (inactive),–,> 100 µM (inactive),> 100 µM (inactive),> 100 µM (inactive),> 100 µM (inactive),> 100 µM (inactive),> 100 µM (inactive),–,> 100 µM (inactive),> 100 µM (inactive),> 100 µM (inactive),> 100 µM (inactive),–,> 100 µM (inactive),> 100 µM (inactive),–,> 100 µM (inactive),> 100 µM (inactive),> 100 µM (inactive)
CCCCCC/C=C1\CCC(CN(C)C)C1=O (centres undefined),4.14 µM (inactive),12.7 µM (inactive),5.64 µM (inactive),2.56 µM (inactive),6.61 µM (inactive),0.641 µM (active),19.6 µM (inactive),4.73 µM (inactive),17 µM (inactive),3.53 µM (inactive),1.98 µM (inactive),2.48 µM (inactive),4.81 µM (inactive),4.44 µM (inactive),8.73 µM (inactive),1.52 µM (inactive),5.47 µM (inactive),4.24 µM (inactive),4.75 µM (inactive),–
Cc1cc(NS(=O)(=O)c2ccc(Nc3c4ccccc4nc4c(C(=O)Nc5ccc(S(=O)(=O)N=C(N)N)cc5)cccc34)cc2)no1,> 100 µM (inactive),> 100 µM (inactive),> 100 µM (inactive),> 100 µM (inactive),> 100 µM (inactive),> 100 µM (inactive),> 100 µM (inactive),> 100 µM (inactive),> 100 µM (inactive),> 100 µM (inactive),> 100 µM (inactive),> 100 µM (inactive),> 100 µM (inactive),> 100 µM (inactive),> 100 µM (inactive),–,–,> 100 µM (inactive),> 100 µM (inactive),> 100 µM (inactive)
COC12OCCN(C)C1=CC(=O)C1N=NCC12 (centres undefined),> 100 µM (inactive),> 100 µM (inactive),> 100 µM (inactive),> 100 µM (inactive),> 100 µM (inactive),> 100 µM (inactive),–,> 100 µM (inactive),> 100 µM (inactive),> 100 µM (inactive),> 100 µM (inactive),> 100 µM (inactive),> 100 µM (inactive),> 100 µM (inactive),–,> 100 µM (inactive),–,> 100 µM (inactive),> 100 µM (inactive),> 100 µM (inactive)
Cc1ccc(S(=O)(=O)O/N=C2\CCC\C2=C/c2ccccc2)cc1,11.1 µM (inactive),22.8 µM (inactive),8.45 µM (inactive),29.6 µM (inactive),18.5 µM (inactive),16 µM (inactive),36.6 µM (inactive),21.3 µM (inactive),–,16.6 µM (inactive),25.4 µM (inactive),17.6 µM (inactive),25.3 µM (inactive),29 µM (inactive),22.1 µM (inactive),6.82 µM (inactive),–,–,17.6 µM (inactive),1.31 µM (inactive)
